# Assay results from patent US9980943B2, “Methods of treating muscular dystrophy” (BOARD OF REGENTS OF THE NEVADA SYSTEM OF HIGHER EDUCATION, …, priority 2013, dated 2018).
# What was measured:
# Assay type in all cases: cell-based, mouse
# [1] = tested on: α7 integrin (LacZ reporter in α7βgal+/− myoblasts); assay: Myoblast α7+/LacZ integrin FDG assay (Burkin assay in myoblasts, 96-well); conditions: α7+/LacZ myoblasts, 96-well
# [2] = tested on: β-galactosidase in CMV-LacZ C2C12 myotubes; assay: CMV-LacZ secondary screen in C2C12 myotubes (β-Gal stabilizing assay); conditions: for CMV-LACZ in Myotubes, signal relative to DMSO: C2C12 CMV-LacZ myotubes, fold relative to DMSO; for CMV-LACZ in Myotubes (β-galactosidase activity relative to DMSO): CMV-LacZ C2C12 myotubes, 96-well format
# Outline: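 β-gal stabilization was measured in C2C12 myoblasts or myotubes stably transfected with a CMV-driven LacZ construct, using the FDG β-gal assay. Compounds were tested in dose-response at 0.5, 1, 5, 10, 20 and 40 μM, with two replicates per point.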
# [3] = tested on: α7 integrin (LacZ reporter in α7+/LacZ myotubes); assay: Myotube α7 integrin FDG assay (Burkin assay in myotubes, 96-well); conditions: myotubes
SMILES,"Burkin Assay in Myoblasts, signal relative to DMSO ([1]; 0.5 uM)","Burkin Assay in Myoblasts, signal relative to DMSO ([1]; 1 uM)","Burkin Assay in Myoblasts, signal relative to DMSO ([1]; 5 uM)","Burkin Assay in Myoblasts, signal relative to DMSO ([1]; 10 uM)","Burkin Assay in Myoblasts, signal relative to DMSO ([1]; 20 uM)","Burkin Assay in Myoblasts, signal relative to DMSO ([1]; 40 uM)","CMV-LACZ in Myotubes, signal relative to DMSO ([2]; 5 uM)","CMV-LACZ in Myotubes, signal relative to DMSO ([2]; 10 uM)","CMV-LACZ in Myotubes, signal relative to DMSO ([2]; 20 uM)","CMV-LACZ in Myotubes, signal relative to DMSO ([2]; 40 uM)","Burkin Assay in Myotubes, α7 integrin LacZ reporter signal relative to DMSO ([3]; 0.5 uM)","Burkin Assay in Myotubes, α7 integrin LacZ reporter signal relative to DMSO ([3]; 1 uM)","Burkin Assay in Myotubes, α7 integrin LacZ reporter signal relative to DMSO ([3]; 5 uM)","Burkin Assay in Myotubes, α7 integrin LacZ reporter signal relative to DMSO ([3]; 10 uM)","Burkin Assay in Myotubes, α7 integrin LacZ reporter signal relative to DMSO ([3]; 20 uM)","Burkin Assay in Myotubes, α7 integrin LacZ reporter signal relative to DMSO ([3]; 40 uM)","Burkin Assay in Myoblasts, value relative to DMSO ([1]; 0.5 uM)","Burkin Assay in Myoblasts, value relative to DMSO ([1]; 1 uM)","Burkin Assay in Myoblasts, value relative to DMSO ([1]; 5 uM)","Burkin Assay in Myoblasts, value relative to DMSO ([1]; 10 uM)",also measured
O=C(Nc1ccccc1F)c1ccc([N+](=O)[O-])s1 [MLS000703499-01],0.7093,1.017,0.9278,0.7632,0.4465,0.1043,0.9313,0.9968,0.689,0.769,0.9725,0.8809,1.059,0.8518,1.101,0.4494,–,–,–,–,–
O=C(/C(=C(/[O-])c1ccccc1)[n+]1ccccc1)c1ccc([N+](=O)[O-])cc1 [MLS000705922-01],–,–,–,–,–,–,–,–,–,–,–,–,–,–,–,–,0.9627,1.02,0.7282,0.7283,"Burkin Assay in Myoblasts, value relative to DMSO ([1]; 20 uM): 0.8892; Burkin Assay in Myoblasts, value relative to DMSO ([1]; 40 uM): 0.8783; CMV-LACZ in Myotubes (β-galactosidase activity relative to DMSO) ([2]; 5 uM): 0.8776; CMV-LACZ in Myotubes (β-galactosidase activity relative to DMSO) ([2]; 10 uM): 0.9306; CMV-LACZ in Myotubes (β-galactosidase activity relative to DMSO) ([2]; 20 uM): 0.9302; CMV-LACZ in Myotubes (β-galactosidase activity relative to DMSO) ([2]; 40 uM): 0.9947; Burkin Assay in Myotubes (signal relative to DMSO) ([3]; 0.5 uM): 0.8984; Burkin Assay in Myotubes (signal relative to DMSO) ([3]; 1 uM): 1.137; Burkin Assay in Myotubes (signal relative to DMSO) ([3]; 5 uM): 0.8511; Burkin Assay in Myotubes (signal relative to DMSO) ([3]; 10 uM): 0.9544; Burkin Assay in Myotubes (signal relative to DMSO) ([3]; 20 uM): 0.9072; Burkin Assay in Myotubes (signal relative to DMSO) ([3]; 40 uM): 1.039"
Cc1cc(C)nc(NC(=O)c2ccc(Cl)cc2Cl)n1 [MLS000706349-01],1.086,0.9797,0.8593,0.8434,0.8584,0.6533,0.9465,0.9553,1.0245,1.1355,1.193,1.008,0.9738,0.9294,1.073,0.9239,–,–,–,–,–
S=c1[nH]nc(Cn2cnc3ccccc32)n1-c1ccccc1 [MLS000707281-01],–,–,–,–,–,–,–,–,–,–,–,–,–,–,–,–,0.9507,0.9756,0.8935,0.8854,"Burkin Assay in Myoblasts, value relative to DMSO ([1]; 20 uM): 0.8359; Burkin Assay in Myoblasts, value relative to DMSO ([1]; 40 uM): 0.7969; CMV-LACZ in Myotubes (β-galactosidase activity relative to DMSO) ([2]; 5 uM): 0.8706; CMV-LACZ in Myotubes (β-galactosidase activity relative to DMSO) ([2]; 10 uM): 0.9255; CMV-LACZ in Myotubes (β-galactosidase activity relative to DMSO) ([2]; 20 uM): 0.9474; CMV-LACZ in Myotubes (β-galactosidase activity relative to DMSO) ([2]; 40 uM): 0.9526; Burkin Assay in Myotubes (signal relative to DMSO) ([3]; 0.5 uM): 1.011; Burkin Assay in Myotubes (signal relative to DMSO) ([3]; 1 uM): 0.6537; Burkin Assay in Myotubes (signal relative to DMSO) ([3]; 5 uM): 1.059; Burkin Assay in Myotubes (signal relative to DMSO) ([3]; 10 uM): 0.7505; Burkin Assay in Myotubes (signal relative to DMSO) ([3]; 20 uM): 1.156; Burkin Assay in Myotubes (signal relative to DMSO) ([3]; 40 uM): 1.141"
